The first experiment concerns the target T1, UGT8 (Homo sapiens, UniProt Q16880).
T1 construct: host or cells: OE19 cells
T1 sequence (Q16880 21-541): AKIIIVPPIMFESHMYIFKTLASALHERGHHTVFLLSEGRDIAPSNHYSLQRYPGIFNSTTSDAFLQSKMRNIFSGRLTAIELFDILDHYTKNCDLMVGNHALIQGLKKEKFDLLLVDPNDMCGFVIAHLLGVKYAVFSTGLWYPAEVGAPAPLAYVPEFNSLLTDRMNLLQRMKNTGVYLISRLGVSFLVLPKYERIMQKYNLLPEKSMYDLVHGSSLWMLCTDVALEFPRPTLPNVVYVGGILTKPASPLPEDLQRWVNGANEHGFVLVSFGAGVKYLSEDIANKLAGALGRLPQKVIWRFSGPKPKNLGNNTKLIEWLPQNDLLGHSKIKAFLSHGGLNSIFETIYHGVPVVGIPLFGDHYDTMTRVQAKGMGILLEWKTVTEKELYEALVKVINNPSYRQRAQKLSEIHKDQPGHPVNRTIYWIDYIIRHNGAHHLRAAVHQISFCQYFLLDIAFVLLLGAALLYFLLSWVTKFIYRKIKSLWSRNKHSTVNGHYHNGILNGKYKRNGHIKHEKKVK
The experiment in a line: In vitro sulfatide (SFT) synthesis inhibition in OE19 cells, LC-MS/MS readout. The settings on record: 72 hr, sulfatide by LC-MS/MS. In kind it is cell-based. In short, it runs like this:
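OE19 cells, 2,500/well, exposed to compound dose-downs in triplicate for 72 hr at 37° C (screening at 10 μM final). Sulfatide quantified by LC-MS/MS (C8 UPLC, isocratic, negative-ion MRM) with C17 SFT internal standard; IC50 from concentration-response curves.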
For the compound `CNC(=O)c1csc2c(C(F)(F)F)cc(N3CCC(OC(=O)NCC4CC4)CC3)nc12.Cl` [Example 669, [1-[3-(Methylcarbamoyl)-7-(trifluoromethyl)thieno[3,2-b]pyridin-5-yl]-4-piperidyl] N-(cyclopropylmethyl)carbamate hydrochloride], the “Potency range (IC50, In-vitro SFT)” value is listed as “A (A < 0.1 uM)”.

The experiment is the same for the next values; noted with them: 72 hr, sulfatide by LC-MS/MS, read-out: Potency range (IC50, In-vitro SFT).
For the compound `CNC(=O)c1c(OC)sc2c(C(F)(F)F)c(Cl)c(N3CCN(CC(=O)NC(C)C)CC3)nc12` [Example 637, 6-Chloro-5-[4-[2-(isopropylamino)-2-oxo-ethyl]piperazin-1-yl]-2-methoxy-N-methyl-7-(trifluoromethyl)thieno[3,2-b]pyridine-3-carboxamide], the IC50 lay within 100 to 1000 nM.

As to `CNC(=O)c1csc2c(C(F)(F)F)c(Cl)c(N3CCC(OC(=O)NCC4CC4)CC3)nc12` [Example 638, [1-[6-Chloro-3-(methylcarbamoyl)-7-(trifluoromethyl)thieno[3,2-b]pyridin-5-yl]-4-piperidyl] N-(cyclopropylmethyl)carbamate], the concentration for half-maximal inhibition (IC50) is less than 100 nM.

For the compound `CNC(=O)c1csc2c(C(F)(F)F)c(F)c(N3CCC(OC(=O)N[C@@H](C)C4CC4)CC3)nc12` [Example 639, [1-[6-Fluoro-3-(methylcarbamoyl)-7-(trifluoromethyl)thieno[3,2-b]pyridin-5-yl]-4-piperidyl] N-[(1S)-1-cyclopropylethyl]carbamate], the IC50 was less than 100 nM.

`CNC(=O)c1csc2c(C(F)(F)F)c(Cl)c(N3CCC(OC(=O)NC4CC4)CC3)nc12` [Example 640, [1-[6-Chloro-3-(methylcarbamoyl)-7-(trifluoromethyl)thieno[3,2-b]pyridin-5-yl]-4-piperidyl] N-cyclopropylcarbamate]: the IC50 was less than 100 nM.

Regarding `CNC(=O)c1csc2c(C(F)(F)F)c(F)c(N3CCC(OC(=O)NC4CC4)CC3)nc12` [Example 641, [1-[6-fluoro-3-(methylcarbamoyl)-7-(trifluoromethyl)thieno[3,2-b]pyridin-5-yl]-4-piperidyl] N-cyclopropylcarbamate], the IC50 was less than 100 nM.

Take `CC(C)NC(=O)c1csc2c(C(F)(F)F)cc(N3CCC(NC(=O)OC(C)(C)C)C3)nc12` (stereo not drawn) [Example 642, tert-Butyl N-[1-[3-(isopropylcarbamoyl)-7-(trifluoromethyl)thieno[3,2-b]pyridin-5-yl]pyrrolidin-3-yl]carbamate]: the IC50 was 100 to 1000 nM.

With `CC(C)NC(=O)CN1CCN(c2cc(C(F)(F)F)c3scc(C(=O)N4CCC4)c3n2)CC1` [Example 649, 2-[4-[3-(Azetidine-1-carbonyl)-7-(trifluoromethyl)thieno[3,2-b]pyridin-5-yl]piperazin-1-yl]-N-isopropyl-acetamide], the concentration for half-maximal inhibition (IC50) fell in the range of 100 to 1000 nM.

Consider `[2H]C([2H])([2H])NC(=O)c1csc2c(C(F)(F)F)cc(N3CCC(OC(=O)NC4CC4)CC3)nc12` [Example 653, [1-[3-(Trideuteriomethylcarbamoyl)-7-(trifluoromethyl)thieno[3,2-b]pyridin-5-yl]-4-piperidyl] N-cyclopropylcarbamate], for which the IC50 was less than 100 nM.

Regarding `COC(=O)c1csc2c(C(F)(F)F)cc(N3CCC(NC(=O)OC(C)(C)C)C3)nc12` (stereo not drawn) [Example 659, Methyl 5-[3-(tert-butoxycarbonylamino)pyrrolidin-1-yl]-7-(trifluoromethyl)thieno[3,2-b]pyridine-3-carboxylate], the IC50 was 100 to 1000 nM.

Consider `CNC(=O)c1csc2c(C(F)(F)F)cc(N3CCC(OC(=O)NC(C)C(F)F)CC3)nc12` (stereo not drawn) [Example 670, [1-[3-(Methylcarbamoyl)-7-(trifluoromethyl)thieno[3,2-b]pyridin-5-yl]-4-piperidyl] N-(2,2-difluoro-1-methyl-ethyl)carbamate], for which the half-inhibitory concentration (IC50) was less than 100 nM.

Turning to `CNC(=O)c1csc2c(C(F)(F)F)cc(N3CCC(OC(=O)N[C@H](C)CF)CC3)nc12` [Example 692, [1-[3-(Methylcarbamoyl)-7-(trifluoromethyl)thieno[3,2-b]pyridin-5-yl]-4-piperidyl] N-[(1R)-2-fluoro-1-methyl-ethyl]carbamate], the IC50 is less than 100 nM.

As to `CNC(=O)c1csc2c(C(F)(F)F)cc(OC3CC4COCC(C3)N4C(=O)OC(C)(C)C)nc12` (stereo not drawn) [Example 750], the IC50 is more than 1000 nM.

For the compound `CNC(=O)c1csc2c(C(F)(F)F)cc(N3CCN(C(=O)OCC4CC4)CC3)nc12` [Example 780, Cyclopropylmethyl 4-(3-(methylcarbamoyl)-7-(trifluoromethyl)thieno[3,2-b]pyridin-5-yl)piperazine-1-carboxylate], the IC50 is less than 100 nM.

As for `CNC(=O)c1csc2c(C(F)(F)F)cc(N3CCC(OC(=O)N4C[C@H](N(C)C)[C@@H]4C)CC3)nc12` [Example 793, 1-(3-(Methylcarbamoyl)-7-(trifluoromethyl)thieno[3,2-b]pyridin-5-yl)piperidin-4-yl (2S,3S)-3-(dimethylamino)-2-methylazetidine-1-carboxylate], the IC50 was 100 to 1000 nM.

For the compound `CNC(=O)c1csc2c(C(F)(F)F)cc(N3CCC(OC(=O)N4C[C@@H](N(C)C)[C@@H]4C)CC3)nc12` [Example 794, 1-(3-(Methylcarbamoyl)-7-(trifluoromethyl)thieno[3,2-b]pyridin-5-yl)piperidin-4-yl (2S,3R)-3-(dimethylamino)-2-methylazetidine-1-carboxylate], the IC50 was less than 100 nM.

Turning to `CNC(=O)c1csc2c(C(F)(F)F)cc(N3CCC(OC(=O)N4CC5(CCN5C)C4)CC3)nc12` [Example 806, 1-(3-(Methylcarbamoyl)-7-(trifluoromethyl)thieno[3,2-b]pyridin-5-yl)piperidin-4-yl 1-methyl-1,6-diazaspiro[3.3]heptane-6-carboxylate], the IC50 was less than 100 nM.

`CNC(=O)c1csc2c(C(F)(F)F)cc(N3CCC(NC(=O)O[C@H]4CCN(C)[C@H]4C)CC3)nc12` [Example 809, (2S,3S)-1,2-Dimethylpyrrolidin-3-yl (1-(3-(methylcarbamoyl)-7-(trifluoromethyl)thieno[3,2-b]pyridin-5-yl)piperidin-4-yl)carbamate]: the half-maximal inhibitory concentration (IC50) is more than 1000 nM.

Take `CNC(=O)c1csc2c(C(F)(F)F)cc(N3CCC(NC(=O)OC(C)C)CC3)nc12` [Example 816, Isopropyl (1-(3-(methylcarbamoyl)-7-(trifluoromethyl)thieno[3,2-b]pyridin-5-yl)piperidin-4-yl)carbamate]: the IC50 is less than 100 nM.

On to `CNC(=O)c1csc2c(C(F)(F)F)cc(O[C@H]3C[C@@H](OC(=O)NC4COC4)C3)nc12` [Example 822, (+/−)-cis-(1S,3S)-3-((3-(Methylcarbamoyl)-7-(trifluoromethyl)thieno[3,2-b]pyridin-5-yl)oxy)cyclobutyl oxetan-3-ylcarbamate], for which the IC50 is 100 to 1000 nM.

For `CNC(=O)c1csc2c(C(F)(F)F)cc(OC3CCN(C(=O)OC4CN(C)CC4F)CC3)nc12` (stereo not drawn) [Example 835, 4-Fluoro-1-methylpyrrolidin-3-yl 4-((3-(methylcarbamoyl)-7-(trifluoromethyl)thieno[3,2-b]pyridin-5-yl)oxy)piperidine-1-carboxylate], the IC50 is 100 to 1000 nM.

Consider `CNC(=O)c1csc2c(C(F)(F)F)cc(OC3CC4(C3)CN(C(=O)O[C@@H](C)COC(F)(F)F)C4)nc12` [Example 853, (S)-1-(Trifluoromethoxy)propan-2-yl 6-((3-(methylcarbamoyl)-7-(trifluoromethyl)thieno[3,2-b]pyridin-5-yl)oxy)-2-azaspiro[3.3]heptane-2-carboxylate], for which the IC50 is less than 100 nM.

Take `CNC(=O)c1csc2c(C(F)(F)F)cc(O[C@H]3CCN(C(=O)OC[C@@H](C)OC(F)(F)F)C3)nc12` [Example 858, (R)-2-(Trifluoromethoxy)propyl (S)-3-((3-(methylcarbamoyl)-7-(trifluoromethyl)thieno[3,2-b]pyridin-5-yl)oxy)pyrrolidine-1-carboxylate]: the IC50 is less than 100 nM.

In the case of `CNC(=O)c1csc2c(C(F)(F)F)c(C)c(O[C@@H]3CCN(C(=O)O[C@@H](C)C4CC4)[C@H](C)C3)nc12` [Example 866, (S)-1-Cyclopropylethyl (2R,4R)-2-methyl-4-((6-methyl-3-(methylcarbamoyl)-7-(trifluoromethyl)thieno[3,2-b]pyridin-5-yl)oxy)piperidine-1-carboxylate], the IC50 was less than 100 nM.

The values above are taken from US11098056B2, “UDP glycosyltransferase inhibitors and methods of use” (GENZYME CORPORATION, priority 2018, dated 2021).
